According to US10857258B2, “Adhesive peptide and use therefor” (SEWON BIOTECHNOLOGY INC., priority 2015, dated 2020):
“Also recorded” adds a separate entry of the source. Residues, ends and D or L forms follow the SMILES beside them.

Experiments:
osteoblast MC3TC-E1 = assay: Safety in osteoblasts; assay type: cell-based, Mouse; settings: 0.1 μM, 1 μM, 10 μM and 100 μM
Protocol: The safety of the present peptides was determined using osteoblast MC3TC-E1. Osteoblasts were treated with A7-1 peptide as prepared in Example 1 at the concentration of 0.1 μM, 1 μM, 10 μM and 100 μM. Then the effect of the present peptide on the proliferation (FIG. 8A), viability (FIG. 8B) and differentiation (FIG. 8C) on the cells was examined. For testing the effect on the […], MC3T3-E1 and C2C12 cell lines were treated with BMP (rhBMP2, 10 ng/ml for 3 days) and differentiation medium for bone formation for 6 days to induce differentiation. The results were examined by cell staining. It is observed that the present peptide has no effect on the proliferation rate, viability rate or whether or not the cells are differentiated.

[1] = tested on: anchorage dependent cells MC3T3-E1; assay: Comparative experiment with soluble RGDS, CCK-8; assay type: cell-based, Mouse; settings: RGDS 0, 10, 100 and 1000 μM
Protocol: The present peptide A7-1(10 μM) or A7-1 together with soluble RGDS peptide (0, 10, 100 and 1000 μM) for competition assay were added to anchorage dependent cells MC3T3-E1 in a test tube and incubated for 10 min. Then the cells were transferred to a culture plate and incubated for 10 min in a thermostatic incubator to allow the cells to attach. After 10 min, the medium was removed and the cells were washed 2 times with PBS to remove any unattached cells and a fresh medium without the peptide and CCK-8 (Dojindo) were added to the cells and incubated for 1 hr in a thermostatic incubator. Then the absorbance was measured at 450 nm. The medium mixed with CCK-8 only was used as a blank.

CC(C)C[C@H](NC(=O)[C@H](CCC(N)=O)NC(=O)[C@@H](N)CCCNC(=N)N)C(=O)N[C@H](C(=O)N[C@H](C(=O)N[C@@H](CCCCN)C(=O)N[C@@H](Cc1ccccc1)C(=O)N[C@@H](CCCNC(=N)N)C(=O)N[C@@H](C)C(=O)N[C@@H](CC(C)C)C(=O)N1CCC[C@H]1C(=O)N[C@@H](CS)C(=O)O)C(C)C)C(C)C [A7-1, RQLVVKFRALPC] (H-RQLVVKFRALPC-OH)
effect on differentiation (osteoblast MC3TC-E1): no effect | effect on proliferation rate (osteoblast MC3TC-E1): no effect | effect on viability rate (osteoblast MC3TC-E1): no effect

RGDS
cell adhesiveness with RGDS in the absence of A7-1 [1]: decreased in a concentration dependent manner; also recorded: significantly reduces the adhesiveness
